Active and inactive are the calls of the source. No cut-off for these calls is given here.
Tests used:
[1] = molecular target: T1, Dual specificity protein kinase TTK (Homo sapiens) (UniProt P33981); experiment: Inhibition of Mps1 phosphorylation in mouse 4T1-Luc cells xenografted in BALB/C mouse at 30 to 60 mg/kg, po qd treated for 15 days by IHC analysis; assay type: organism-based; details: dose 30-60 mg/kg, time 15.0 day
T1 sequence (whole entry): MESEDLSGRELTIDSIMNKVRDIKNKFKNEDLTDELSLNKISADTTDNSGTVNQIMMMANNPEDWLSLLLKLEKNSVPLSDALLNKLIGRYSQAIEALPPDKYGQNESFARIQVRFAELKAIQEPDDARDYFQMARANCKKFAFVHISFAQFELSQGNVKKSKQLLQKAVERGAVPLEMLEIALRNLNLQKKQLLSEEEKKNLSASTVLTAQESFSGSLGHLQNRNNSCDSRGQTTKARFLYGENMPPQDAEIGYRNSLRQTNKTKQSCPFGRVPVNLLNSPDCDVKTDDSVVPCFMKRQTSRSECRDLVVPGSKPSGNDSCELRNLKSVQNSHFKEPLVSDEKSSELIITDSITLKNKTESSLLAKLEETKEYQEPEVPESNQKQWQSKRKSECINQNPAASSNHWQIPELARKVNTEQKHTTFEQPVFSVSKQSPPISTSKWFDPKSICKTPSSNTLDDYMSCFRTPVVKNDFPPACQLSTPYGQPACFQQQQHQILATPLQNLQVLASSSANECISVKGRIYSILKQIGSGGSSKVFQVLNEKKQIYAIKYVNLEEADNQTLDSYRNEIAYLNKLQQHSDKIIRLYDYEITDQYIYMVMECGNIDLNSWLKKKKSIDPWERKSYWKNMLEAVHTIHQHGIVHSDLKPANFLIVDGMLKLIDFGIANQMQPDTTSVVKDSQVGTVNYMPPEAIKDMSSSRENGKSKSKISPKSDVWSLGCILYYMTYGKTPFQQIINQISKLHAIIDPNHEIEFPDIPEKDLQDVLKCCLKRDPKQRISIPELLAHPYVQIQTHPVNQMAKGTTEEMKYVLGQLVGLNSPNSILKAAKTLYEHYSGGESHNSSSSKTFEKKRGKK

[2] = Toxicity in BALB/C mouse xenografted with mouse 4T1-Luc cells assessed as histological change in kidneys at 30 to 60 mg/kg, po qd treated for 15 days by H and E staining based analysis; assay type: organism-based; details: in vivo, 360 h, dose 30-60 mg/kg, time 15 day
[3] = system: 4T1; experiment: Induction of apoptosis in 4T1 cells assessed as increase in cleaved PARP level upto 3 uM incubated for 48 hrs by Western blot analysis; assay type: functional, cell-based; details: Mus musculus
[4] = system: MCF7; experiment: Induction of apoptosis in human MCF7 cells assessed as increase in cleaved PARP level upto 3 uM incubated for 48 hrs by Western blot analysis; assay type: functional, cell-based
[5] = system: 4T1; experiment: Induction of apoptosis in 4T1 cells assessed as early apoptotic cells at 5 uM incubated for 48 hrs by Annexin V-FITC/PI staining based flow cytometry (reference value: 0.32 %); assay type: functional, Mus musculus
[6] = system: 4T1; experiment: Induction of apoptosis in 4T1 cells assessed as necrotic cells at 0.5 uM incubated for 48 hrs by Annexin V-FITC/PI staining based flow cytometry (reference value: 0.20 %); assay type: functional, Mus musculus
[7] = system: MCF7; experiment: Induction of apoptosis in human MCF7 cells assessed as late apoptotic cells at 5 uM incubated for 48 hrs by Annexin V-FITC/PI staining based flow cytometry (reference value: 0.63 %); assay type: functional
[8] = system: MCF7; experiment: Induction of apoptosis in human MCF7 cells assessed as necrotic cells at 1 uM incubated for 48 hrs by Annexin V-FITC/PI staining based flow cytometry (reference value: 0.03 %); assay type: functional
[9] = system: 4T1; experiment: Induction of cell cycle arrest in 4T1 cells at G2/M phase assessed as decrease in CDK1 level incubated for 24 hrs by Western blot analysis; assay type: functional, cell-based; details: Mus musculus, dose <= 3.0 µM
[10] = system: 4T1; experiment: Induction of cell cycle arrest in 4T1 cells at G2/M phase assessed as decrease in cyclin B1 level incubated for 24 hrs by Western blot analysis; assay type: functional, cell-based; details: Mus musculus, dose <= 3.0 µM
[11] = system: MCF7; experiment: Antiproliferative activity against human MCF7 cells upto 5 uM measured after 14 days by colony formation assay; assay type: functional, cell-based; details: time 14.0 day
[12] = system: 4T1; experiment: Antiproliferative activity against 4T1 cells assessed as inhibition of cell viability incubated for 24 to 72 hrs by MTT assay; assay type: functional, cell-based; details: Mus musculus, dose <= 10.0 µM, time 24-72 hrs
[13] = system: GES1; experiment: Antiproliferative activity against human GES1 cells assessed as inhibition of cell viability by MTT assay; assay type: toxicity, cell-based
[14] = system: AGS; experiment: Antiproliferative activity against human AGS cells assessed as inhibition of cell viability upto 10 uM incubated for 72 hrs by MTT assay; assay type: functional, cell-based
[15] = system: A549; experiment: Antiproliferative activity against human A549 cells assessed as inhibition of cell viability upto 10 uM incubated for 72 hrs by MTT assay; assay type: functional, cell-based
[16] = system: HCT-116; experiment: Antiproliferative activity against human HCT-116 cells assessed as inhibition of cell viability upto 10 uM incubated for 72 hrs by MTT assay; assay type: functional, cell-based
[17] = system: ES-2; experiment: Antiproliferative activity against human ES2 cells assessed as inhibition of cell viability upto 10 uM incubated for 72 hrs by MTT assay; assay type: functional, cell-based
[18] = system: OVCAR-3; experiment: Antiproliferative activity against human OVCAR-3 cells assessed as inhibition of cell viability upto 10 uM incubated for 72 hrs by MTT assay; assay type: functional, cell-based
[19] = system: 4T1; experiment: Antiproliferative activity against 4T1 cells assessed as inhibition of cell viability upto 10 uM by MTT assay; assay type: functional, cell-based; details: Mus musculus, time 24-72 hrs, TDE = time-dependent effect
[20] = system: A549; experiment: Antiproliferative activity against human A549 cells assessed as inhibition of cell viability by MTT assay; assay type: functional, cell-based
[21] = system: HCT-116; experiment: Antiproliferative activity against human HCT-116 cells assessed as inhibition of cell viability by MTT assay; assay type: functional, cell-based
[22] = system: MCF7; experiment: Antiproliferative activity against human MCF7 cells assessed as inhibition of cell viability by MTT assay; assay type: functional, cell-based
[23] = system: 4T1; experiment: Antiproliferative activity against 4T1 cells assessed as inhibition of cell viability by MTT assay; assay type: functional, cell-based; details: Mus musculus
[24] = system: Tyrosine-protein kinase ABL1 (Homo sapiens), P00519 [T315I]; experiment: Inhibition of human Abl T315I mutant at 0.1 uM by KINOMEscan assay relative to control
[25] = molecular target: T1, Dual specificity protein kinase TTK (Homo sapiens); experiment: Inhibition of human Mps1 at 0.1 uM by KINOMEscan assay relative to control
[26] = molecular target: Hepatocyte growth factor receptor (Homo sapiens) (UniProt P08581); experiment: Inhibition of human Met at 1 uM by KINOMEscan assay relative to control
Sequence of Hepatocyte growth factor receptor (Homo sapiens) (P08581 whole entry): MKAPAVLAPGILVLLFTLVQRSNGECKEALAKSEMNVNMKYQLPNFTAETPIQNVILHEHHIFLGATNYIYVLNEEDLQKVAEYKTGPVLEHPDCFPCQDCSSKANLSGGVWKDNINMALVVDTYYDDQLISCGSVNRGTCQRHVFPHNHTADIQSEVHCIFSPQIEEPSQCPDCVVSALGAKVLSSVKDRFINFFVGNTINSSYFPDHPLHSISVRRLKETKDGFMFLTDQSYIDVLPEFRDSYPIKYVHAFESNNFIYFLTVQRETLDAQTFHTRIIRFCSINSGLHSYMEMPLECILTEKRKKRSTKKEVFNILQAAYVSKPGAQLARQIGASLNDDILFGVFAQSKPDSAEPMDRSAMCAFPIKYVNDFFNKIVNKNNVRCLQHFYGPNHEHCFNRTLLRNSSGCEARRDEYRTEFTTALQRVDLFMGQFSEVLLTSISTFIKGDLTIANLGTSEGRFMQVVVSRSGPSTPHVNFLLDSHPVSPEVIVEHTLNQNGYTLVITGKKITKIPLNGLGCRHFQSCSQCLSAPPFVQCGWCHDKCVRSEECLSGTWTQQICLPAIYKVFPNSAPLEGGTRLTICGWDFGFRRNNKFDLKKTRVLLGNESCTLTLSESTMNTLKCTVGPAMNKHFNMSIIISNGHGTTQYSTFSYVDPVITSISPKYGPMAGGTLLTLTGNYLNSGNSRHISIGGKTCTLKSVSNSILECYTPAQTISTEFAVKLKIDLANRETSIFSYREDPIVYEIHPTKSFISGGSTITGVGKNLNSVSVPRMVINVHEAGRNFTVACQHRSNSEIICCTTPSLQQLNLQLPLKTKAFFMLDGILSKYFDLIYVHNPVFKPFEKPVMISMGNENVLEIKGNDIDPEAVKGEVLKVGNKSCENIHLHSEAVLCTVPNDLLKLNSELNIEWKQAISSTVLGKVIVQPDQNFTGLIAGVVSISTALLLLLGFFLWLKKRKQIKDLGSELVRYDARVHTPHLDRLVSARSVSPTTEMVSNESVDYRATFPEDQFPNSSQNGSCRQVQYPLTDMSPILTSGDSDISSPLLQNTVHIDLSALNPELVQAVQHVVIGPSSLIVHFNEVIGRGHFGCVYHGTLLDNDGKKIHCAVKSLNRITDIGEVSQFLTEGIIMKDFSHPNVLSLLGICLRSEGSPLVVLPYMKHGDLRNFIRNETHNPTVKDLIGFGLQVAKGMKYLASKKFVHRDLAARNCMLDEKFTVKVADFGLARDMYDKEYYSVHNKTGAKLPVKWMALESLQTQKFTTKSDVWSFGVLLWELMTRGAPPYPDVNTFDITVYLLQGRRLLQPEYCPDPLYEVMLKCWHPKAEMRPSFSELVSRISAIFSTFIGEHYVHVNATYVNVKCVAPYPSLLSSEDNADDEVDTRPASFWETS

[27] = molecular target: Receptor-type tyrosine-protein kinase FLT3 (Homo sapiens) (UniProt P36888); experiment: Inhibition of human FLT3 at 1 uM by KINOMEscan assay relative to control
Sequence of Receptor-type tyrosine-protein kinase FLT3 (Homo sapiens) (P36888 whole entry): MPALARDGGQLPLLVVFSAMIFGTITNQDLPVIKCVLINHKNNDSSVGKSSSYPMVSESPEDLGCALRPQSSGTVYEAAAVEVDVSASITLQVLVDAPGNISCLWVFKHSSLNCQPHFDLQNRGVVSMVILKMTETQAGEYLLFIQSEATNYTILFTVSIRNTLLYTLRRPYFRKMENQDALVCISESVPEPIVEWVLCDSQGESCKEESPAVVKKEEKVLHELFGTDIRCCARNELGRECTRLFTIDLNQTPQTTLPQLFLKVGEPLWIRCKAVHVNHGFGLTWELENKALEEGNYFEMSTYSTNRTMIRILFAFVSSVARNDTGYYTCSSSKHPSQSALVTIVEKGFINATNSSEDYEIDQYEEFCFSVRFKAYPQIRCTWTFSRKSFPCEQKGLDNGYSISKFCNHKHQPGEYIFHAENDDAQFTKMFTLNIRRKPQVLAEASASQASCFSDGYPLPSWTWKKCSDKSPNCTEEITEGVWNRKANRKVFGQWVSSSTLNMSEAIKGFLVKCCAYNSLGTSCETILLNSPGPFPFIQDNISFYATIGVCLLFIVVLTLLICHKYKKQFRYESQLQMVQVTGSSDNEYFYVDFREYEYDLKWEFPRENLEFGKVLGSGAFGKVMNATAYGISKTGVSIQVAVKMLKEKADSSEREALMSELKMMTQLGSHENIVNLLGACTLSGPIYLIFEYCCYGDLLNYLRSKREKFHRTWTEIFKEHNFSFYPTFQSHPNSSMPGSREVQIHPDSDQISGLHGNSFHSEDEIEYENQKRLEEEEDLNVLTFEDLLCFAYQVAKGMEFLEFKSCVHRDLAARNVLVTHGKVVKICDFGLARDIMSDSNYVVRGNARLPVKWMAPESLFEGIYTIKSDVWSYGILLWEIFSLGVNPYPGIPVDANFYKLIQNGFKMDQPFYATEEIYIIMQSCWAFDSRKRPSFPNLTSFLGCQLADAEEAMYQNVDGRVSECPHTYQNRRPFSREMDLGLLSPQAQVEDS

[28] = molecular target: Insulin-like growth factor 1 receptor (Homo sapiens) (UniProt P08069); experiment: Inhibition of human IGF-1R at 1 uM by KINOMEscan assay relative to control
Sequence of Insulin-like growth factor 1 receptor (Homo sapiens) (P08069 31-736 limits assumed): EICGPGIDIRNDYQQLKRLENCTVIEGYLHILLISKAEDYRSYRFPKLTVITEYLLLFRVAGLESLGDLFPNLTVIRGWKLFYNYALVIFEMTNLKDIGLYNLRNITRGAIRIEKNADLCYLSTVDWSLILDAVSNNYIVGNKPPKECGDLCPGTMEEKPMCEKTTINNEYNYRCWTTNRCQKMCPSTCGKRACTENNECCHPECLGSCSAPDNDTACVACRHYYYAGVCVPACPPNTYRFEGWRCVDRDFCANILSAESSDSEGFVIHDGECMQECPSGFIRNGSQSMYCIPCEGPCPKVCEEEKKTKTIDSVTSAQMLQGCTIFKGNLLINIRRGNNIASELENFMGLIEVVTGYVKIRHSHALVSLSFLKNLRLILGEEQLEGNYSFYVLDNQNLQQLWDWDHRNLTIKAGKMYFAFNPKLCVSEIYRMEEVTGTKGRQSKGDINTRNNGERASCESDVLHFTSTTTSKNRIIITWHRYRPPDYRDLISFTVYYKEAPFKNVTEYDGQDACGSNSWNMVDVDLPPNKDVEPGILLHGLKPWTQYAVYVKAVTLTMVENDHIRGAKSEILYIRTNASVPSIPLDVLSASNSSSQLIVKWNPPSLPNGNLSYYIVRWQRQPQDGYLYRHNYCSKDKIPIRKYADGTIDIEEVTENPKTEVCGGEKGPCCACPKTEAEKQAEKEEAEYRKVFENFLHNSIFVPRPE
Sequence of Insulin-like growth factor 1 receptor (Homo sapiens) (P08069 741-1367 limits assumed): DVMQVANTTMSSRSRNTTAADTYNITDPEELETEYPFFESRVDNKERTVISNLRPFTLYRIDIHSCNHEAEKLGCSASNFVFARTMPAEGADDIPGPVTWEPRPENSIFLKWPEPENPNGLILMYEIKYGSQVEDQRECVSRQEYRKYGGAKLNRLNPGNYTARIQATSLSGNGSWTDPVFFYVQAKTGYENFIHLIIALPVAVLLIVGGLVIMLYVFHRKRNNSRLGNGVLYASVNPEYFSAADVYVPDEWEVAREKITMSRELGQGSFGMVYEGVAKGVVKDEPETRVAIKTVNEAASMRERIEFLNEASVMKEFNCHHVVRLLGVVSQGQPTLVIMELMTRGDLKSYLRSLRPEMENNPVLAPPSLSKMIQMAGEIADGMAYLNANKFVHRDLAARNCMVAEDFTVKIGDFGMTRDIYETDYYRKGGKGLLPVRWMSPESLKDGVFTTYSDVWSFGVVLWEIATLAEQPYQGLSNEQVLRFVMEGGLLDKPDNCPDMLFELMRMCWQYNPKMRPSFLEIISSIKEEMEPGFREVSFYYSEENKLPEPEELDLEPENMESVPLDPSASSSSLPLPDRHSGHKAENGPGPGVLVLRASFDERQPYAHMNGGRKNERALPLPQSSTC

[29] = molecular target: Cytoplasmic tyrosine-protein kinase BMX (Homo sapiens) (UniProt P51813); experiment: Inhibition of human Bmx at 1 uM by KINOMEscan assay relative to control
Sequence of Cytoplasmic tyrosine-protein kinase BMX (Homo sapiens) (P51813 whole entry): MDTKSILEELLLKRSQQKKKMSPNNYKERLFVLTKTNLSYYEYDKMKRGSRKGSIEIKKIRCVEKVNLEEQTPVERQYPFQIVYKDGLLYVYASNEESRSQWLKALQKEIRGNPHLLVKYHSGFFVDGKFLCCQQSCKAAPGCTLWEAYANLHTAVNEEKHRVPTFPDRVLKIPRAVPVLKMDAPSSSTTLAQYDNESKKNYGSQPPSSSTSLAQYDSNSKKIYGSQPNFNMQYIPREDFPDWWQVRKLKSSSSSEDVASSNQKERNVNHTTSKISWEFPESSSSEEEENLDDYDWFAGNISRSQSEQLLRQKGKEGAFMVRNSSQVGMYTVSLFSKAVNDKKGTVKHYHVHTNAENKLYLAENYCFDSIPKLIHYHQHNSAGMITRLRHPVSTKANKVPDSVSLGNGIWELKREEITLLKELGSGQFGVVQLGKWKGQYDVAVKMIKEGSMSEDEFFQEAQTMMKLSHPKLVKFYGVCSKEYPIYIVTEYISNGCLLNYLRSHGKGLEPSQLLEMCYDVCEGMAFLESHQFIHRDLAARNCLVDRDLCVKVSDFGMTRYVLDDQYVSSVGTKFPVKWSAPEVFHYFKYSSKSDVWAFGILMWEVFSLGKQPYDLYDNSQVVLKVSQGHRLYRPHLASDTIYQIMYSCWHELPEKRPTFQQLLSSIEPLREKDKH

inhibition [1]: Active
IC50 [20]: 2.03 µM
IC50 [21]: 1.06 µM
IC50 [22]: 0.37 µM
IC50 [23]: 0.4 µM
inhibition [24]: 40%
inhibition [25]: 87%
inhibition [26]: 100%
inhibition [27]: 92%
inhibition [28]: 98%
inhibition [29]: 95%
Compound: CN1CCN(c2ccc(Nc3nc(-n4nc(N)c5ccccc54)c4cc[nH]c4n3)cc2)CC1
Activity [2]: Non-Toxic
Activity [3]: Active
Activity [4]: Active
Activity [5]: 2.71%
Activity [6]: 0.7%
Activity [7]: 17.53%
Activity [8]: 0.26%
Activity [9]: Dose-Dependent Effect
Activity [10]: Dose-Dependent Effect
Activity [11]: Active
inhibition [12]: Dose-Dependent Effect
Activity [13]: Non-Toxic
inhibition [14]: Active
inhibition [15]: Active
inhibition [16]: Active
inhibition [17]: Active
inhibition [18]: Active
inhibition [19]: Tde
